Data set [1] in a line: Anti-osteoporosis activity C57/BL6 mouse bone marrow macrophage cells assessed as inhibition of RANKL-induced osteoclastogenesis at 0.1 uM measured after 5 to 6 days in presence of M-CSF and RNKL by TRAP staining microscopic analysis. It is filed as functional, BMDM. On the set-up: scale not given: the % may be the effect or the level left. The note with it: time 5-6 day.

The test system of a further data set is BMDM. In words: Cytotoxicity against C57/BL6 mouse bone marrow macrophage cells assessed as reduction in cell viability at 10 uM incubated for 3 days by CCK8 assay. The class given is toxicity, cell-based. The note with it: 72 h, time 3 day.
The nature of data set [2]: Anti-osteoporosis activity C57/BL6 mouse bone marrow macrophage cells assessed as inhibition of RANKL-induced osteoclastogenesis at 1 uM measured after 5 to 6 days in presence of M-CSF and RNKL by TRAP staining microscopic analysis. The class given is functional, BMDM. Details: scale not given: the % may be the effect or the level left. The settings on record: time 5-6 day.

Data set [3] can be described thus: Cmax in OVX-induced C57/BL6 mouse model at 5 mg/kg, po. It is filed as ADME, organism-based. Details: dose 5 mg/kg, route po. The note with it: female, in vivo.
The nature of data set [4]: AUC(0 to t) in OVX-induced C57/BL6 mouse model at 3 mg/kg, iv. It is filed as ADME, organism-based. On the set-up: dose 3 mg/kg, route iv. The note with it: female, in vivo.
A short description of data set [5]: Half life in OVX-induced C57/BL6 mouse model at 3 mg/kg, iv. The class given is ADME, organism-based. The settings on record: female, in vivo.
Data set [6] in a line: Clearance in OVX-induced C57/BL6 mouse model at 3 mg/kg, iv. The class given is ADME, organism-based. The settings on record: female, in vivo.
The nature of data set [7]: AUC(0 to t) in OVX-induced C57/BL6 mouse model at 5 mg/kg, po. On the set-up: dose 5 mg/kg, route po. The class given is ADME, organism-based. The settings on record: female, in vivo.
Data set [8] is described as follows: Oral bioavailability in OVX-induced C57/BL6 mouse model. The class given is ADME, organism-based. The note with it: female, in vivo.
Data set [9] can be described thus: Half life in OVX-induced C57/BL6 mouse model at 5 mg/kg, po. It is filed as ADME, organism-based. The note with it: female, in vivo.

The results in this text go back to ChEMBL document CHEMBL5120967, “Development of an Orally Active Small-Molecule Inhibitor of Receptor Activator of Nuclear Factor-κB Ligand” (J Med Chem, 2022).

Turning to `O=C(Nc1ncc[nH]1)c1cc2c([nH]c3ccccc32)c(CCc2ccccc2)n1`, the Activity in [1] is 10.7%; in data set [2] it was 78.9%. Moreover, in the data set on BMDM, the Cell viability was greater than 100%.

For `Cc1cccc(C)c1NC(=O)c1cc2c([nH]c3ccccc32)c(CCc2cccc(F)c2)n1`, the Activity in data set [1] turned out to be 21%; in data set [2], 54.7%. Moreover, the Cell viability in the data set on BMDM was greater than 100%.

For `O=C(Nc1ccncc1)c1cc2c([nH]c3ccccc32)c(CCc2ccccc2)n1`, the values for the Activity in data set [1] and in [2] were 18.4% and 56.6%, respectively. Further, the Cell viability in the data set with BMDM was greater than 100%.

On to `Cc1cccc(C)c1NC(=O)c1cc2c([nH]c3ccccc32)c(CCc2ccc(P(C)(C)=O)cc2)n1`, for which the Activity in [1] was 32.6%; in data set [2] it was 81.6%. Also, the Cell viability with BMDM is listed as greater than 100%.

On to `Cc1cccc(C)c1NC(=O)c1cc2c([nH]c3ccccc32)c(CCc2ccc(C#N)cc2)n1`, for which the Activity in data set [1] stood at 16.5%; in data set [2] it was 79.5%. Moreover, the Cell viability in the data set with BMDM was greater than 100%.

Turning to `Cc1cccc(C)c1NC(=O)c1cc2c([nH]c3ccccc32)c(CCc2ccc(Cl)cc2)n1`, the results for the Activity in data set [1] and in data set [2] were 11.3% and 52.5%, respectively. The Cell viability in the data set on BMDM was greater than 100%.

`Cc1cccc(C)c1NC(=O)c1cc2c([nH]c3ccccc32)c(CCc2ccc(C(=O)O)cc2)n1`: the Activity in [1] is 37.6%; in data set [2], 85.9%. The Cell viability in the data set with BMDM was greater than 100%.

`Cc1cccc(C)c1NC(=O)C(Cc1c[nH]c2ccccc12)NCCCc1ccccc1` (stereo not drawn): the Cmax (as a rule, the peak of the concentration-time curve) in data set [3] was 10 ng/mL. Moreover, the AUC(0-t) – broadly, exposure summed from dosing to a finite time, without extrapolation to infinity – in [4] is 984 ng·h/mL; in data set [7] it was 38.8 ng·h/mL. For the same molecule, the half-life – broadly, how long it takes for the measured level to halve – in data set [5] is 1.2 h; in data set [9] it was 0.9 h. In addition, the clearance (as a rule, the rate of elimination divided by the concentration) in data set [6] was determined as 51 mL/min/kg. Also, the bioavailability (usually the share of a dose that reaches the circulation, judged against a reference dose that is usually intravenous) in data set [8] came to 2.4%. Besides, the Cell viability in the data set on BMDM is greater than 100%. In addition, the Activity in [2] is 32%.

As to `Cc1cccc(C)c1NC(=O)c1cc2c([nH]c3ccccc32)c(CCc2ccc(N(C)C)cc2)n1`, the Activity in [1] was determined as 36.7%; in data set [2], 54.7%. Further, the Cell viability with BMDM is on record as greater than 100%.

For `COc1ccccc1CCc1nc(C(=O)Nc2c(C)cccc2C)cc2c1[nH]c1ccccc12`, the Activity is reported as 33.6% in data set [1] and 83% in data set [2]. Besides, the Cell viability with BMDM is listed as greater than 100%.

Take `Cc1ccc(CCc2nc(C(=O)Nc3c(C)cccc3C)cc3c2[nH]c2ccccc23)cc1`: the Activity was found to be 16.2% in data set [1] and 77.6% in [2]. In addition, the Cell viability with BMDM is given as greater than 100%.

In the case of `CC(=O)Nc1ccc(CCc2nc(C(=O)Nc3c(C)cccc3C)cc3c2[nH]c2ccccc23)cc1`, the Activity came out at 19% in [1] and 55% in data set [2]. For the same molecule, the Cell viability with BMDM is greater than 100%.

As for `COc1ccc(CCc2nc(C(=O)Nc3c(C)cccc3C)cc3c2[nH]c2ccccc23)cc1`, the Activity was 29.3% in [1] and 75.7% in [2]. In addition, the Cell viability in the data set with BMDM is greater than 100%.

On to `Cc1cc2occ(CN(C)CCN(C)Cc3cn(-c4cccc(C(F)(F)F)c4)c4ccccc34)c(=O)c2cc1C`, for which the Activity turned out to be 18.4% in data set [1] and 56.1% in data set [2]. In the data set on BMDM, the Cell viability came out at 3.8%.

Take `Cc1cccc(C)c1NC(=O)c1cc2c([nH]c3ccccc32)c(CCc2ccncc2)n1`: the Activity came out at 29.8% in [1] and 79.1% in data set [2]. Moreover, the Cell viability in the data set on BMDM is reported as greater than 100%.

Consider `Cc1cccc(C)c1NC(=O)c1cc2c([nH]c3ccccc32)c(CCc2ccc(F)cc2)n1`, for which the Activity is on record as 28.2% in data set [1] and 65.2% in data set [2]. The Cell viability in the data set on BMDM is greater than 100%.

For `Cc1cccc(C)c1NC(=O)c1cc2c([nH]c3ccccc32)c(CCc2ccccc2F)n1`, the Activity in data set [1] was determined as 26.7%; in [2], 66.7%. Besides, the Cell viability in the data set with BMDM is greater than 100%.

For the molecule `Cc1cccc(C)c1NC(=O)c1cc2c([nH]c3ccccc32)c(CCC2CCCCC2)n1`, the Activity in data set [1] is 9.1%; in [2], 52.8%. Moreover, the Cell viability in the data set on BMDM is on record as greater than 100%.

For `COc1cccc(CCc2nc(C(=O)Nc3c(C)cccc3C)cc3c2[nH]c2ccccc23)c1`, the Activity in [1] was 27.1%; in data set [2], 82.3%. The Cell viability with BMDM is given as greater than 100%.
